# Measurements taken from patent publication US11466034B2, “Compound functioning as bromodomain protein inhibitor, and composition” (Betta Pharmaceuticals Co., Ltd., priority 2017, dated 2022).
# What was measured:
# BRD4(D1) = BRD4(D1) (Homo sapiens (Human), UniProt O60885); experiment: Inhibitory activity against BRD4(D1), HTRF assay; assay type: binding
# Protocol: (§1) (+)-JQ1 was used as comparison compound, to evaluated the inhibitory activity of compounds of the invention against BRD4(D1) and BRD4(D2) in vitro.
# (§2) The assays of BRD4 (D1) and BRD4 (D2) were conducted in a 384-well polystyrene plate. The test compounds were first serially diluted in DMSO and the test compound/DMSO were transferred to 384-well plates. The final concentration of DMSO in the assay was 0.1%. 2 volumes of protein/peptide mixture were added into 384-well plates, then 2 volumes of assay mixture were added, and shake for 30 s. The plate was incubated at room temperature for 2 h. Then the HTRF signal on EnVision was readed.
# (§3) Use equation (1) to fit the date in Excel to obtain the value of the inhibition rate. Inhibition rate (%)=(maximum value−signal value)/(maximum value−minimum value)*100 Equation(1):
# (§4) IC50 determination was performed by fitting the data using GraphPad Prism 5.0 software and equation (2). Y=bottom+(Top−bottom)/(1+10^((Log IC50−X)*HillSlope)); Equation(2): wherein, Y represents the percentage of inhibition (%); X represents the concentration of test compounds.
# (§5) The IC50 data of the examples were provided in the following table, wherein, A stands for IC50<100 nM; B stands for IC50 is 100-300 nM; C stands for IC50>300 nM.
# BRD4(D2) = BRD4(D2) (Homo sapiens (Human), UniProt O60885); experiment: Inhibitory activity against BRD4(D2), HTRF assay; assay type: binding
# Protocol: as §1, §2, §3, §4, §5
Compound,IC50 (BRD4(D1); numeric values),IC50 (BRD4(D2); numeric values),IC50 (BRD4(D1); class symbols),IC50 (BRD4(D2); class symbols)
"Cc1nc2ncc(-c3cn(C)c(=O)c4[nH]ccc34)cc2n1Cc1ccc(Cl)cc1 [Example 1, 4-(1-(4-chlorobenzyl)-2-methyl-1H-imidazo[4,5-b]pyridin-6-yl)-6-methyl-1H-pyrrolo[2,3-c]pyridin-7(6H)-one]",7 nM,2.5 nM,,
"COc1ccc(Cn2c(C)nc3ncc(-c4cn(C)c(=O)c5[nH]ccc45)cc32)cc1 [Example 2, 4-(1-(4-methoxybenzyl)-2-methyl-1H-imidazo[4,5-b]pyridin-6-yl)-6-methyl-1H-pyrrolo[2,3-c]pyridin-7(6H)-one]",10.4 nM,3 nM,,
"CSc1ccc(Cn2c(C)nc3ncc(-c4cn(C)c(=O)c5[nH]ccc45)cc32)cc1 [Example 3, 6-methyl-4-(2-methyl-1-(4-(methylthio)benzyl)-1H-imidazo[4,5-b]pyridin-6-yl)-1H-pyrrolo[2,3-c]pyridin-7(6H)-one]",12.7 nM,3.2 nM,,
"Cc1nc2ncc(-c3cn(C)c(=O)c4[nH]ccc34)cc2n1Cc1ccc(C(F)(F)F)cc1 [Example 4, 6-methyl-4-(2-methyl-1-(4-(trifluoromethyl)benzyl)-1H-imidazo[4,5-b]pyridin-6-yl)-1H-pyrrolo[2,3-c]pyridin-7(6H)-one]",14.6 nM,4 nM,,
"Cc1nc2ncc(-c3cn(C)c(=O)c4[nH]ccc34)cc2n1Cc1ccccc1 [Example 6, 4-(1-benzyl-2-methyl-1H-imidazo[4,5-b]pyridin-6-yl)-6-methyl-1H-pyrrolo[2,3-c]pyrid in-7(6H)one]",7.6 nM,2.8 nM,,
"Cc1nc2ncc(-c3cn(C)c(=O)c4[nH]ccc34)cc2n1C [Example 7, 4-(1,2-dimethyl-1H-imidazo[4,5-b]pyridin-6-yl)-6-methyl-1,6-dihydro-7H-pyrrolo[2,3-c]pyridin-7-one]",52.4 nM,10.8 nM,,
"Cc1nc2ncc(-c3cn(C)c(=O)c4[nH]ccc34)cc2[nH]1 [Example 8, 6-methyl-4-(2-methyl-1H-imidazo[4,5-b]pyridin-6-yl)-1,6-dihydro-7H-pyrrolo[2,3-c]pyridin-7-one]",39.9 nM,6 nM,,
"COC(=O)c1ccc(Cn2c(C)nc3ncc(-c4cn(C)c(=O)c5[nH]ccc45)cc32)cc1 [Example 9, methyl 4-((2-methyl-6-(6-methyl-7-oxo-6,7-dihydro-1H-pyrrolo[2,3-c]pyridin-4-yl)-1H-imidazo[4,5-b]pyridin-1-yl)methyl)benzoate]",,,100 to 300 nM,100 to 300 nM
"COc1ccc(Cn2c(C)nc3ncc(-c4cn(Cc5ccccc5)c(=O)c5[nH]ccc45)cc32)cc1 [Example 10, 6-benzyl-4-(1-(4-methoxybenzyl)-2-methyl-1H-imidazo[4,5-b]pyridin-6-yl)-1,6-dihydro-7H-pyrrolo[2,3-c]pyridin-7-one]",,,> 300 nM,> 300 nM
"COc1ccc(Cn2c(C)nc3ncc(-c4cn(CC(C)C)c(=O)c5[nH]ccc45)cc32)cc1 [Example 11, 6-isobutyl-4-(1-(4-methoxybenzyl)-2-methyl-1H-imidazo[4,5-b]pyridin-6-yl)-1,6-dihydro-7H-pyrrolo[2,3-c]pyridin-7-one]",,,> 300 nM,100 to 300 nM
"CCn1cc(-c2cnc3nc(C)n(Cc4ccc(OC)cc4)c3c2)c2cc[nH]c2c1=O [Example 12, 6-ethyl-4-(1-(4-methoxybenzyl)-2-methyl-1H-imidazo[4,5-b]pyridin-6-yl)-1,6-dihydro-7H-pyrrolo[2,3-c]pyridin-7-one]",,,100 to 300 nM,100 to 300 nM
"COc1ccc(Cn2c(C)nc3ncc(-c4c[nH]c(=O)c5[nH]c(C)cc45)cc32)cc1 [Example 13, 4-(1-(4-methoxybenzyl)-2-methyl-1H-imidazo[4,5-b]pyridin-6-yl)-2-methyl-1,6-dihydro-7H-pyrrolo[2,3-c]pyridin-7-one]",,,100 to 300 nM,100 to 300 nM
"COc1ccc(Cn2c(C)nc3ncc(-c4cn(Cc5nccs5)c(=O)c5[nH]ccc45)cc32)cc1 [Example 14, 4-(1-(4-methoxybenzyl)-2-methyl-1H-imidazo[4,5-b]pyridin-6-yl)-6-(thiazol-2-ylmethyl)-1,6-dihydro-7H-pyrrolo[2,3-c]pyridin-7-one]",,,100 to 300 nM,> 300 nM
"COc1ccc(Cn2c(C)nc3ncc(-c4cn(Cc5ccn[nH]5)c(=O)c5[nH]ccc45)cc32)cc1 [Example 15, 4-(1-(4-methoxybenzyl)-2-methyl-1H-imidazo[4,5-b]pyridin-6-yl)-6-(pyrazol-2-methyl)-1,6-dihydro-7H-pyrrolo[2,3-c]pyridin-7-one]",,,> 300 nM,100 to 300 nM
"COc1cccc(Cn2c(C)nc3ncc(-c4c[nH]c(=O)c5[nH]c(C)cc45)cc32)c1 [Example 16, 4-(1-(3-methoxybenzyl)-2-methyl-1H-imidazo[4,5-b]pyridin-6-yl)-2-methyl-1,6-dihydro-7H-pyrrolo[2,3-c]pyridin-7-one]",,,100 to 300 nM,< 100 nM
"Cc1nc2ncc(-c3cn(Cc4cccnc4)c(=O)c4[nH]ccc34)cc2n1Cc1ccc(Cl)cc1 [Example 17, 4-(1-(4-chlorobenzyl)-2-methyl-1H-imidazo[4,5-b]pyridin-6-yl)-6-(pyridin-3-ylmethyl)-1,6-dihydro-7H-pyrrolo[2,3-c]pyridin-7-one]",,,> 300 nM,> 300 nM
"COc1ccc(Cn2c(C)nc3ncc(-c4cn(C)c(=O)c5[nH]ccc45)nc32)cc1 [Example 20, 4-(1-(4-methoxybenzyl)-2-methyl-H-imidazo[4,5-b]pyrazin-6-yl)-6-methyl-1H-pyrrol o[2,3-c]pyridin-7(6H)-one]",12.8 nM,2.5 nM,,
"Cc1nc2ncc(-c3cn(C)c(=O)c4[nH]ccc34)nc2n1C(C)c1ccc(Cl)cc1 (stereo not drawn) [Example 21, 4-(1-(1-(4-chlorophenyl)ethyl)-2-methyl-1H-imidazo[4,5-b]pyrazin-6-yl)-6-methyl-1,6-dihydro-7H-pyrrolo[2,3-c]pyridin-7-one]",6.1 nM,1.8 nM,,
"Cc1nc2ncc(-c3cn(C)c(=O)c4[nH]ccc34)nc2n1Cc1ccccc1 [Example 22, 4-(1-benzyl-2-methyl-1H-imidazo[4,5-b]pyrazin-6-yl)-6-methyl-1H-pyrrolo[2,3-c]pyrid in-7(6H)-one]",,,< 100 nM,< 100 nM
"Cc1nc2ncc(-c3cn(C)c(=O)c4[nH]ccc34)nc2n1Cc1cc(C(F)(F)F)ccc1F [Example 24, 4-(1-(2-fluoro-5-trifluoromethylbenzyl)-2-methyl-1H-imidazo[4,5-b]pyrazin-6-yl)-6-methyl-1H-pyrrolo[2,3-c]pyridin-7(6H)-one]",,,< 100 nM,< 100 nM
"Cc1nc2ncc(-c3cn(C)c(=O)c4[nH]ccc34)nc2n1Cc1ccc(Cl)cc1F [Example 26, 4-(1-(2-fluoro-4-chlorobenzyl)-2-methyl-H-imidazo[4,5-b]pyrazin-6-yl)-6-methyl-H-pyrrolo[2,3-c]pyridin-7(6H)-one]",,,< 100 nM,< 100 nM
"Cc1nc2ncc(-c3cn(C)c(=O)c4[nH]ccc34)nc2n1Cc1ccc(C(F)(F)F)c(F)c1 [Example 28, 4-(1-(3-fluoro-4-trifluoromethylbenzyl)-2-methyl-1H-imidazo[4,5-b]pyrazin-6-yl)-6-methyl-1H-pyrrolo[2,3-c]pyridin-7(6H)-one]",,,< 100 nM,< 100 nM
"Cc1nc2ncc(-c3cn(C)c(=O)c4[nH]ccc34)nc2n1Cc1ccc(C(F)(F)F)c(Cl)c1 [Example 29, 4-(1-(3-chloro-4-trifluoromethylbenzyl)-2-methyl-1H-imidazo[4,5-b]pyrazin-6-yl)-6-methyl-1H-pyrrolo[2,3-c]pyridin-7(6H)-one]",,,< 100 nM,< 100 nM
"Cc1nc2ncc(-c3cn(C)c(=O)c4[nH]ccc34)nc2n1Cc1cccc(Cl)c1 [Example 30, 4-(1-(3-chlorobenzyl)-2-methyl-1H-imidazo[4,5-b]pyrazin-6-yl)-6-methyl-1H-pyrrolo[2,3-c]pyridin-7(6H)-one]",,,< 100 nM,< 100 nM
"Cc1nc2ncc(-c3cn(C)c(=O)c4[nH]ccc34)nc2n1Cc1ccc(F)cc1F [Example 31, 4-(1-(2,4-difluorobenzyl)-2-methyl-1H-imidazo[4,5-b]pyrazin-6-yl)-6-methyl-1H-pyrrolo[2,3-c]pyridin-7(6H)-one]",,,< 100 nM,< 100 nM
"Cc1nc2ncc(-c3cn(C)c(=O)c4[nH]ccc34)nc2n1Cc1ccc(Br)cc1 [Example 32, 4-(1-(4-bromobenzyl)-2-methyl-1H-imidazo[4,5-b]pyrazin-6-yl)-6-methyl-H-pyrrolo[2,3-c]pyridin-7(6H)-one]",,,< 100 nM,< 100 nM
"Cc1nc2ncc(-c3cn(C)c(=O)c4[nH]ccc34)nc2n1Cc1ccc(S(C)(=O)=O)cc1 [Example 33, 6-methyl-4-(2-methyl-1-(4-(methylsulfonyl)benzyl)-1H-imidazo[4,5-b]pyrazin-6-yl)-1H-pyrrolo[2,3-c]pyridin-7(6H)-one]",,,< 100 nM,< 100 nM
"Cn1cc(-c2cnc3[nH]c(=O)n(Cc4ccc(Cl)cc4)c3c2)c2cc[nH]c2c1=O [Example 34, 1-(4-chlorobenzyl)-6-(6-methyl-7-oxo-6,7-dihydro-1H-pyrrolo[2,3-c]pyridin-4-yl)-1,3-dihydro-2H-imidazo[4,5-b]pyridin-2-one]",107 nM,31 nM,,
(+)-JQ1 [reference compound],16 nM,,,
